The results in this text go back to patent US12440567B2, “Aqueous antibody formulation stabilized by antioxidants for parenteral administration” (AMGEN INC., priority 2007, dated 2025).

Data set [1] relates to Antibody A binding to its target antigen. The data set can be described thus: Binding of Antibody A to its target antigen (CM5 sensor chip) after UV-B exposure of the formulation. The note with it: 20 mM antioxidant; pH 5.20 acetate buffer; 302 nm UV light over 24 hours. On the procedure:
(§1) For the examples below involving exposure to UVB radiation, each sample was exposed to UVB light (λ≈302 nm) for varying times, using a UVP 8W model UVLMS-38 lamp at 4° C. The formulations were then analyzed using size exclusion chromatography high pressure liquid chromatography (SEC-HPLC). Aggregation (measured via SEC-HPLC analysis) and binding (measured using CM5 gold sensor chips) were measured to determine the effect of the antioxidant on aggregation and bioactivity of the therapeutic protein. The binding activity of therapeutic protein to a ligand (e.g. to an antibody or binding partner, or, in cases where the therapeutic was an antibody, binding activity to the specific target antigen or to protein A) was determined as follows. […] The therapeutic protein-binding ligand of interest was injected until the desired immobilization level was achieved (above 5000 response units). Three different therapeutic protein-binding ligands were measured—Antibody A's target antigen, Protein A, and D11 (an antibody that binds to erythropoietin). […] The remaining activated groups were blocked with 1.0 M ethanolamine-HCl, pH 8.5. […] Various UV-stressed antibody formulations were also diluted in HBS-EP buffer (pH 7.4) to a concentration within the standard curve region, and injected to quantitate the loss of bioactivity to its respective ligand-binding partner.

For data set [2], the system named is Antibody A binding to protein A. Description: Binding of Antibody A to protein A (CM5 sensor chip) after UV-B exposure of the formulation. The note with it: 20 mM antioxidant; pH 5.20 acetate buffer; 302 nm UV light over 24 hours. On the procedure:
as §1

Data set [3] has as its system Antibody B binding to protein A. Description: Binding of Antibody B to protein A after UV-B exposure of the formulation. The note with it: 20 mM additive; pH 6.90 phosphate buffer; 0-24 hours UV-B. On the procedure: (§2) For the examples below involving exposure to UVB radiation, each sample was exposed to UVB light (λ≈302 nm) for varying times, using a UVP 8W model UVLMS-38 lamp at 4° C. The formulations were then analyzed using size exclusion chromatography high pressure liquid chromatography (SEC-HPLC). Aggregation (measured via SEC-HPLC analysis) and binding (measured using CM5 gold sensor chips) were measured to determine the effect of the antioxidant on aggregation and bioactivity of the therapeutic protein.
The binding activity of therapeutic protein to a ligand (e.g. to an antibody or binding partner, or, in cases where the therapeutic was an antibody, binding activity to the specific target antigen or to protein A) was determined as follows. […] The therapeutic protein-binding ligand of interest was injected until the desired immobilization level was achieved (above 5000 response units). Three different therapeutic protein-binding ligands were measured—Antibody A's target antigen, Protein A, and D11 (an antibody that binds to erythropoietin). […] The remaining activated groups were blocked with 1.0 M ethanolamine-HCl, pH 8.5.
A standard curve was prepared by using native forms of the therapeutic protein of interest. Native forms of the therapeutic protein were diluted in HBS-EP buffer (pH 7.4) to concentrations between 1 and 5 μg/mL, and then injected on the column, prepared as described above to obtain a standard curve. At the end of each sample run, regeneration buffer was used to wash away any bound therapeutic protein in preparation for subsequent injections.
Various UV-stressed antibody formulations were also diluted in HBS-EP buffer (pH 7.4) to a concentration within the standard curve region, and injected to quantitate the loss of bioactivity to its respective ligand-binding partner.

A further data set deals with EPO. The data set can be described thus: SEC-HPLC aggregation/degradation of EPO after UV-B exposure. The note with it: pH 6.90, 302 nm UV-B 24 hours. The data set is classed as physicochemical, human. On the procedure: as §2, with “protein. The SEC-HPLC conditions were as follows: a G3000 TOSOH SWXL column was used and the flowrate was set at 0.5 mL/min. […] FIG. 4 (EPO), FIG. 5 (anti-streptavidin), and FIG. 6 (Antibody A) show SEC-HPLC chromatograms of each proteins following exposure to 302 nm UV-B light for 24 hours. […] Each formulation was then exposed to 302 nm UV-B light for 24 hours. The protein formulation was then analyzed using SEC-HPLC.” for “protein.”

The test system of data set [4] is anti-streptavidin mAb (IgG2). The data set can be described thus: SEC-HPLC aggregation of anti-streptavidin (IgG2) after UV-B exposure. The data set is classed as physicochemical. The note with it: 20 mM antioxidant; 1 mg/mL anti-streptavidin, 10 mM sodium acetate, 5% sorbitol, pH 5.00; 302 nm UV-B 24 hours. (In general: In gel filtration, larger molecules generally elute earlier.)
Experimental: (§3) The SEC-HPLC conditions were as follows: a G3000 TOSOH SWXL column was used and the flowrate was set at 0.5 mL/min. […] For both IgG1 and IgG2, the mobile phase was 80 mM sodium phosphate, 300 mM sodium perchlorate, 10% isopropanol, pH 7.2, and each sample was run for 45 minutes.
(§4) For FIG. 5, the anti-streptavidin formulation was prepared having the following characteristics: 1 mg/mL anti-streptavidin mAb (IgG2), 10 mM sodium acetate, 5% sorbitol, and pH 5.00. For FIG. 6, the Antibody A formulation was prepared having the following characteristics: 1 mg/mL Antibody A (IgG1), 10 mM sodium acetate, 9% sucrose, and pH 5.20.

The next data set relates to Antibody A (IgG1). Description: SEC-HPLC aggregation of Antibody A (IgG1) after UV-B exposure. The class given is physicochemical. The note with it: 20 mM antioxidant; 1 mg/mL Antibody A, 10 mM sodium acetate, 9% sucrose, pH 5.20; 302 nm UV-B 24 hours.
Data set [5] concerns anti-streptavidin (IgG2 antibody). The data set can be described thus: Thermal aggregation of anti-streptavidin at 52° C. for 10 days. The class given is physicochemical. The note with it: 10 mM antioxidant; 50 mM sodium acetate pH 5.00; no UV. On the procedure: The SEC-HPLC conditions were as follows: a G3000 TOSOH SWXL column was used and the flowrate was set at 0.5 mL/min. […] Anti-streptavidin was formulated in 50 mM sodium acetate at pH 5.00. These formulations were not exposed to UV radiation but assessed on their thermal stability.

The subject of a further data set is Antibody A. The data set can be described thus: Discoloration (yellowing) of Antibody A formulations after UV-B exposure. The class given is physicochemical. The note with it: UV-B light 24 hours.

Experimental for Antibody A (IgG1): as §3, §4

With `COc1cc(/C=C/C(=O)O)ccc1O` [ferulic acid], the “binding of Antibody A to its target antigen after UV exposure” value in data set [1] is “preserved”. For the same compound, the “binding of Antibody A to protein A after UV exposure” value in data set [2] is given as “preserved”. In addition, the “binding of Antibody B to protein A after UV-B exposure” value in data set [3] is recorded as “prevented UV-B induced degradation”. Moreover, the “amount of EPO dimer and aggregate caused by UV light (SEC-HPLC)” value with EPO (0.1 mM antioxidant, 0.336 mg/mL EPO, 20 mM sodium phosphate) is “able to reduce the amount of EPO dimer and aggregate”. Also, in the data set on EPO (0.1 mM antioxidant, 0.336 mg/mL EPO), the “prevention of EPO degradation compared with 10 mM methionine (SEC-HPLC)” value is “able to prevent EPO degradation more effectively than 10 mM methionine”. Also, in the data set with EPO (20 mM antioxidant, 1 mg/mL EPO, 25 mM sodium phosphate, 125 mM sodium chloride), the “amount of aggregate of EPO (SEC-HPLC)” value is recorded as “dramatically reduced”. The “amount of aggregate of anti-streptavidin (SEC-HPLC)” value in data set [4] was “dramatically reduced”. Also, in the data set on Antibody A (IgG1), the “amount of aggregate of Antibody A (SEC-HPLC)” value was “dramatically reduced”. In data set [5], the “aggregation of anti-streptavidin after 10 days at 52° C.” value is recorded as “contributed to the aggregation of anti-streptavidin”. The “yellowing of Antibody A formulation” value with Antibody A (10 mM additive alone) and with Antibody A (10 mM antioxidant in the presence of 10 mM methionine) was “no appreciable yellowing” in each case.
